From US20090130707A1, “Methods of reducing the inhibitory effect of a redox active metal ion on the enzymatic hydrolysis of cellulosic material” (priority 2007, published 2009)

Assays:
[1] = Hydrolysis of PCS stripped with chelator; type: biochemical; conditions: PCS (43 g per liter) stripped overnight with 10 mM chelator, then washed
Experimental: To test whether there was any significant amount of (accessible) Fe(II) in PCS, and whether stripping it with a chelator would improve PCS hydrolysis, washed PCS (43 g per liter) was “stripped” with 10 mM 2,2′-bipyridyl, 1,10-phenanthroline, or 1,7-phenanthroline. After overnight pre-incubation, the PCS was extensively washed to remove the chelator. The hydrolysis was performed in a series of duplicate “mini-scale” hydrolysis reactions performed according to the procedure described in Example 30.

[2] = system: Cellulolytic Enzyme Composition #1; experiment: mini-scale AVICEL hydrolysis by Cellulolytic Enzyme Composition #1; type: biochemical, Trichoderma reesei; conditions: 3 mM; 23 g AVICEL and 0.25 g enzyme per liter
Experimental: FIGS. 19A, 19B, 19C, and 19D show the effective inhibitory concentration range of Fe(II) on the hydrolysis of AVICEL® by Cellulolytic Enzyme Composition #1 (A and B) and on the hydrolysis of PASC by Cellulolytic Enzyme Composition #1 (C and D). The AVICEL® hydrolysis was conducted with […] of AVICEL® and 0.25 g of Cellulolytic Enzyme Composition #1 per liter of 50 mM sodium acetate pH 5 at 50° C. FeSO4 (mM): (∘) 0, (+) 1, (Δ) 3, (⋄) 5, (□) 10. Dixon plot linear regression line: 1/Rate=(0.035±0.003)[Fe(II)]+(0.043±0.015), r^2=0.978. Rate was estimated from the hydrolysis difference (%) at 24 and 6 hours. The PASC hydrolysis was conducted with 2 g of PASC and 50 mg of Cellulolytic Enzyme Composition #1 per liter of 50 mM sodium acetate pH 5 at 50° C. Dixon plot linear regression line: 1/Rate=(0.0042±0.0003)[Fe(II)]+(0.059±0.002), r^2=0.994. Rates were estimated from the hydrolysis difference (%) at 7 hours.
(§1) The effect of various salts (FeSO4, FeCl2, NaCl, Na2SO4, MnSO4, MnCl2) was determined in the hydrolysis of PCS by Cellulolytic Enzyme Composition #2. The PCS hydrolysis was performed in duplicate in capped 1.7 ml EPPENDORF® tubes (“mini-scale”) containing 1 ml suspensions of 43.4 g of PCS (dry weight) per liter, 10 mM salts in 50 mM sodium acetate pH 5. Cellulolytic Enzyme Composition #2 was added at 0.25 g per liter. Reactions without the addition of the salt served as controls. The capped tubes were incubated at 50° C. in an INNOVA® 4080 incubator shaker (New Brunswick Scientific Co., Inc., Edison, N.J., USA) at 150 rpm.
In one series of “mini-scale” hydrolysis reactions performed according to the procedure described in Example 30, the effect of 1 mM to 10 mM FeSO4 was evaluated in the hydrolysis of AVICEL® by Cellulolytic Enzyme Composition #1.

[3] = system: Cellulolytic Enzyme Composition #1; experiment: mini-scale PCS hydrolysis by Cellulolytic Enzyme Composition #1; type: biochemical, Trichoderma reesei; conditions: PCS hydrolysis (FIGS. 23A-23D)
Experimental: as §1
(§2) Aliquots of the suspensions, sampled over time, were filtered by centrifugation using a 0.45 μm MULTISCREEN® HV membrane (Millipore, Billerica, Mass., USA) at 2000 rpm for 15 minutes using a SORVALL® RT7 centrifuge (Thermo Fisher Scientific, Waltham, Mass., USA). When not used immediately, the filtered sugary aliquots were frozen at −20° C. Sugar concentrations of the samples diluted in 0.005 M H2SO4 were measured after elution from a 4.6×250 mm AMINEX® HPX-87H column (Bio-Rad, Hercules, Calif., USA) by 0.005 M H2SO4 at a flow rate of 0.4 ml/minute at 65° C. with quantitation by integration of glucose and cellobiose using refractive index detection (CHEMSTATION®, AGILENT® 1100 HPLC, Agilent Technologies, Santa Clara, Calif., USA) calibrated with standards of glucose and cellobiose. The resultant equivalents were used to calculate the percentage of cellulose conversion for each reaction.
Example 30 was repeated with both Cellulolytic Enzyme Composition #1 and Cellulolytic Enzyme Composition #2. Soluble reducing sugars were measured by HPLC as described in Example 30. Reactions without the addition of FeSO4 served as controls.
The hydrolysis was performed in a series of duplicate “mini-scale” hydrolysis reactions according to the procedure described in Example 30.

[4] = target: T1, Aspergillus oryzae CEL3A beta-glucosidase (Aspergillus oryzae, UniProt Q2UUD6); experiment: Cellobiose hydrolysis by CEL3A beta-glucosidase; type: biochemical
T1 construct: made in house
Experimental: The Fe(II) inhibition of Aspergillus oryzae CEL3A beta-glucosidase was measured similarly, except cellobiose replaced PASC. The initial rate vs Fe(II) concentration plots appeared as “mixed” type, whose complexity prevented extraction of Kis.

[5] = ionic radii in crystals, 6-ligand coordination; cited from earlier work
[6] = system: Cellulolytic Enzyme Composition #2; experiment: mini-scale PCS hydrolysis by Cellulolytic Enzyme Composition #2; type: biochemical, Trichoderma reesei; conditions: 10 mM Fe(II) (FIG. 17B)
Experimental: Corn stover was pretreated at the U.S. Department of Energy National Renewable Energy Laboratory (NREL), […], Colo., USA, using dilute sulfuric acid. The following conditions were used for the pretreatment: 1.4 wt % sulfuric acid at 195° C. for 4.5 minutes. According to limit digestion with excess cellulase enzymes, the water-insoluble solids in the pretreated corn stover (PCS) contained 59.5% cellulose. Prior to use, the PCS was washed with a large volume of deionized water until soluble acid and sugars were removed. The dry weight of the water-washed PCS was 19.16%.
The effect of various salts (FeSO4, FeCl2, NaCl, Na2SO4, MnSO4, MnCl2) was determined in the hydrolysis of PCS by Cellulolytic Enzyme Composition #2. […] Cellulolytic Enzyme Composition #2 was added at 0.25 g per liter. Reactions without the addition of the salt served as controls. The capped tubes were incubated at 50° C. in an INNOVA® 4080 incubator shaker (New Brunswick Scientific Co., Inc., Edison, N.J., USA) at 150 rpm.
as §2
The degree of cellulose conversion to glucose plus cellobiose (% conversion) was calculated using the following equation:
% Conversion=(glucose+cellobiose×1.053)(mg/ml)×100×162/cellulose(mg/ml)×180)=(glucose+cellobiose×1.053)(mg/ml)×100/(cellulose(mg/ml)×1.111)
In this equation the factor 1.111 reflects the weight gain in converting cellulose to glucose, and the factor 1.053 reflects the weight gain in converting cellobiose to glucose. Cellulose in PCS was determined by a limit digest of PCS to release glucose and cellobiose.

[7] = target: T2, Trichoderma reesei Cel7B endoglucanase I (Trichoderma reesei, UniProt P07981); experiment: PASC hydrolysis by Cel7B endoglucanase I; type: biochemical
T2 construct: made in house; host or cells: Aspergillus oryzae JaL250

[8] = target: T3, Trichoderma reesei Cel7A cellobiohydrolase I (Trichoderma reesei, UniProt P62694); experiment: PASC hydrolysis by Cel7A cellobiohydrolase I; type: biochemical
T3 construct: made in house

[9] = system: Cellulolytic Enzyme Composition #1; experiment: mini-plate-scale AVICEL hydrolysis by Cellulolytic Enzyme Composition #1; type: biochemical, Trichoderma reesei
Experimental: (§3) Various (biologically common) divalent metal cations with variable ionic radii were tested in 2.8 ml Deep Well Microplates (VWR International, West Chester, Pa., USA) (“mini-plate-scale”) containing 1 ml suspensions of 25 g of AVICEL® per liter in 50 mM sodium acetate pH 5 at 50° C. Cellulolytic Enzyme Composition #1 was added at 0.25 g per liter for each hydrolysis. The mini-plates were sealed at 160° C. for 2 seconds using an ABGENE® ALPS 300™ sealer (ABgene, Rochester, N.Y., USA). The sealed mini-plates were incubated at 50° C. in an INNOVA® 4080 incubator shaker at 150 rpm. Soluble reducing sugars were measured by HPLC as described in Example 30.
Iron-chelator complexes of variable size or redox property were tested for their ability to inhibit enzymatic hydrolysis of cellulose. […]

[10] = target: T4, Trichoderma reesei Cel5A endoglucanase II (Trichoderma reesei, UniProt P07982); experiment: PASC hydrolysis by Cel5A endoglucanase II; type: biochemical
T4 construct: made in house; host or cells: Aspergillus oryzae JaL250 (transformant JaL250AlLo27)

[11] = target: Cellulolytic Enzyme Composition #1; experiment: mini-plate-scale PASC hydrolysis by Cellulolytic Enzyme Composition #1; type: biochemical, Trichoderma reesei; conditions: PASC; Enzymes: Cellulolytic Enzyme Composition #1; read-out: I50 (mean ± SD)
Experimental: as §3
In one series of “mini-scale” hydrolysis reactions performed according to the procedure described in Example 30, the effect of 1 mM to 10 mM FeSO4 was evaluated in the hydrolysis of AVICEL® by Cellulolytic Enzyme Composition #1. In a series of “mini-plate-scale” hydrolysis reactions performed according to the procedure described in Example 32, the effect of 1 mM to 10 mM FeSO4 was evaluated in the hydrolysis of PASC by Cellulolytic Enzyme Composition #1, except 2 g of PASC and 0.05 g Cellulolytic Enzyme Composition #1 per liter of 50 mM sodium acetate pH 5 were used.
The above study was extended to a range of concentration of Fe(II) and cellulose. In a series of “mini-plate-scale” hydrolysis reactions performed according to the procedure described in Example 32, except that 0.1 to 10 mM FeSO4, 0.6 to 4 g of PASC and 0.01 g of Cellulolytic Enzyme Composition #1 per liter of 50 mM sodium acetate pH 5 were used.

[12] = 0-15 mM FeSO4, 0.6-4 g PASC per liter

T1 sequence (Q2UUD6 20-861): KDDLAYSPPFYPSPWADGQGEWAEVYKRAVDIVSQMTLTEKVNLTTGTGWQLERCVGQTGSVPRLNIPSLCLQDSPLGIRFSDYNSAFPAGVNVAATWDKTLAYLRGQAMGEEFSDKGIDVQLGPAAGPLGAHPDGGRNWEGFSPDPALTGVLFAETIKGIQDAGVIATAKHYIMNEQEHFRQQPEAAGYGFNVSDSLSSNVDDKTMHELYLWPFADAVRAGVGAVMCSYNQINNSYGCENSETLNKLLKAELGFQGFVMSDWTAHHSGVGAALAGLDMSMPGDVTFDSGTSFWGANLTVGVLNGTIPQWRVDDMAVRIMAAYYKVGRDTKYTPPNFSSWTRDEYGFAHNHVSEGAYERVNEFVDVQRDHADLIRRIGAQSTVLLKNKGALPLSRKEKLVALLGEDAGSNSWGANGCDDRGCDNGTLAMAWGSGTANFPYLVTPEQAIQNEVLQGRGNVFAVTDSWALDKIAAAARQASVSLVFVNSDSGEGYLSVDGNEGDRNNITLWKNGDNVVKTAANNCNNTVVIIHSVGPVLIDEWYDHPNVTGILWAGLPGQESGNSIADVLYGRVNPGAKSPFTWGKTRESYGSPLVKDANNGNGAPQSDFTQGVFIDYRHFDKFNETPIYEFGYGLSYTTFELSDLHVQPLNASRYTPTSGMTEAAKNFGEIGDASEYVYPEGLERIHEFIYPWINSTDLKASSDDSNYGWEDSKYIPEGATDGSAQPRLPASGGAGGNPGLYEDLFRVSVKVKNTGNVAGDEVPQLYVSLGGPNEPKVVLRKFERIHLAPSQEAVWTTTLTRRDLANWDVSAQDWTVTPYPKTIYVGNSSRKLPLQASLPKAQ
T4 sequence (P07982 22-418): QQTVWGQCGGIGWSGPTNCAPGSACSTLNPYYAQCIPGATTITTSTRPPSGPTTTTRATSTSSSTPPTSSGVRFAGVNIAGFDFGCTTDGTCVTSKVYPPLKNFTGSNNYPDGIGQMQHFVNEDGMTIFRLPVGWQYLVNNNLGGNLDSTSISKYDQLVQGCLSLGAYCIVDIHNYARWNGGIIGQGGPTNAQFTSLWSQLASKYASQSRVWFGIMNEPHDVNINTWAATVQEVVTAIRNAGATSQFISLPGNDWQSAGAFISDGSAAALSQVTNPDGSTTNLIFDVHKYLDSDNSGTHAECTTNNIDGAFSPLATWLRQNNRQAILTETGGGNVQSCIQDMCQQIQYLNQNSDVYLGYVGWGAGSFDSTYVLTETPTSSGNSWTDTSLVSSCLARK
T3 sequence (P62694 18-513): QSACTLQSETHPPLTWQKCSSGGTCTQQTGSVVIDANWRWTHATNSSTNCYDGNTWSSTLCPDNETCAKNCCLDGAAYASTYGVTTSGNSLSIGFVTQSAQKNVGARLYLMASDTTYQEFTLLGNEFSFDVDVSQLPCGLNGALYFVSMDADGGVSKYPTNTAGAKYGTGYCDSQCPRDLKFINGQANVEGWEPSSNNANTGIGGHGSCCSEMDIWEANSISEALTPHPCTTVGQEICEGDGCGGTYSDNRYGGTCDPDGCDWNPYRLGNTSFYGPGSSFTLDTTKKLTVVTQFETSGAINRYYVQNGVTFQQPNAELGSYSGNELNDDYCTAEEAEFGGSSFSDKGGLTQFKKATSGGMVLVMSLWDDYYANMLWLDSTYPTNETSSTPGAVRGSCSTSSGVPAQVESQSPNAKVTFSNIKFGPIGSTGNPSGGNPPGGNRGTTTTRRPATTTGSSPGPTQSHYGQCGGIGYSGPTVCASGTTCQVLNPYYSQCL
T2 sequence (P07981 23-459): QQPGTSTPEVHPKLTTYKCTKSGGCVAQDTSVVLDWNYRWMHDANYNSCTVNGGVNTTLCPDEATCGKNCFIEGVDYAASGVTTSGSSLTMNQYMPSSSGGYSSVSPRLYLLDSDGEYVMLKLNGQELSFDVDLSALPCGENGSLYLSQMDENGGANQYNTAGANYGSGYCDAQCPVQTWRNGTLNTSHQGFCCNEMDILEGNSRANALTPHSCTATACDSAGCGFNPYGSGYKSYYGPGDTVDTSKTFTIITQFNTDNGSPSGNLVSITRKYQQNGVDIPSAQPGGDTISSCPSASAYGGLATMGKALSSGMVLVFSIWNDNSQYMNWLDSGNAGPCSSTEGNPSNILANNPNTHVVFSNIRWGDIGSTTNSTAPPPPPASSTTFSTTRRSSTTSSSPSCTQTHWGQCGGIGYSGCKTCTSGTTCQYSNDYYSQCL

c1ccc(-c2ccccn2)nc1 [2,2′-bipyridyl]
increase in hydrolysis extent [1]: approximately 4% | Effect on AVICEL hydrolysis [2]: No significant inhibition | Effect of chelator on enzyme in the absence of FeSO4 [3]: significant inhibition

[Fe+2] [Fe(II)]
Type of initial rate vs Fe(II) concentration plots ([4]; 0-15 mM FeSO4, cellobiose replaced PASC): mixed | IC50 ([4]; CEL3A BG, on cellobiose hydrolysis, read-out: I50 (mean ± SD)): 13 ± 2 mM | Radius [5]: 0.61 Å | activity loss [6]: approximately 70% | Type of initial rate vs Fe(II) concentration plots [7, 12]: mixed | IC50 ([7]; PASC, CEL7B EGI, 40 mg enzyme per liter, read-out: I50 (mean ± SD)): 1.8 ± 0.2 mM | Type of initial rate vs Fe(II) concentration plots [8, 12]: mixed | IC50 ([8]; PASC, CEL7A CBHI, 40 mg enzyme per liter, read-out: I50 (mean ± SD)): 7 ± 2 mM | Effect on enzymatic cellulolysis: loss in initial rate ([9]; 10 mM, 25 g AVICEL and 0.25 g enzyme per liter, pH 5, 50° C.): ~70% loss in initial rate, ~70% loss in extended hydrolysis extent | Effect on enzymatic cellulolysis: loss in extended hydrolysis extent ([9]; 10 mM, 25 g AVICEL and 0.25 g enzyme per liter, pH 5, 50° C., after 4 days): ~70% loss in initial rate, ~70% loss in extended hydrolysis extent | IC50 ([9]; Avicel, Enzymes: Cellulolytic Enzyme Composition #1, read-out: I50 (mean ± SD)): 2 ± 1 mM | Type of initial rate vs Fe(II) concentration plots [10, 12]: mixed | IC50 ([10]; PASC, CEL5A EGII, 40 mg enzyme per liter, read-out: I50 (mean ± SD)): 12 ± 4 mM | IC50 [11]: 14 ± 1 mM
